Results published in PubChem BioAssay (NCI).
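96-well plates; 48 h exposure; 5 concentrations. Endpoints by linear interpolation between flanking doses. Not reached: highest tested concentration assigned. GI50: concentration for 50% inhibition of growth. TGI is the concentration that stops growth completely.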 Where a SMILES comes first, the peptide text is derived from it. The star is where a group is joined. Palmitoyl = CCCCCCCCCCCCCCCC(=O)*

Legend:
Test in all cases: NCI-60 cell line screen, 48 h
A498 renal = tested on: A498 renal
HT29 colon = tested on: HT29 colon
MOLT-4 leukemia = tested on: MOLT-4 leukemia
NCI-H226 lung = tested on: NCI-H226 lung
OVCAR-8 ovarian = tested on: OVCAR-8 ovarian
RXF 393 renal = tested on: RXF 393 renal
SF-295 CNS = tested on: SF-295 CNS
SF-539 CNS = tested on: SF-539 CNS
SK-OV-3 ovarian = tested on: SK-OV-3 ovarian
HOP-92 NSCLC = tested on: HOP-92 NSCLC

Structure (SMILES)	TGI (A498 renal) [µM]	TGI (HT29 colon) [µM]	TGI (MOLT-4 leukemia) [µM]	TGI (NCI-H226 lung) [µM]	TGI (OVCAR-8 ovarian) [µM]	TGI (RXF 393 renal) [µM]	TGI (SF-295 CNS) [µM]	TGI (SF-539 CNS) [µM]	TGI (SK-OV-3 ovarian) [µM]	TGI (HOP-92 NSCLC) [µM]	GI50 (A498 renal) [µM]	GI50 (HT29 colon) [µM]	GI50 (MOLT-4 leukemia) [µM]	GI50 (NCI-H226 lung) [µM]	GI50 (SF-295 CNS) [µM]	GI50 (SK-OV-3 ovarian) [µM]	GI50 (HOP-92 NSCLC) [µM]	GI50 (RXF 393 renal) [µM]	GI50 (SF-539 CNS) [µM]	GI50 (OVCAR-8 ovarian) [µM]
CON(C)c1nc(N(C)OC)nc(N(C)OC)n1	> 10	> 10	> 10	> 10	> 10	> 10	> 10	> 10	> 10	–	–	–	–	–	–	–	–	–	–	–
Nc1nc(O)c2ncn([C@H]3CC[C@@H](CO)O3)c2n1	> 100	> 100	> 100	> 100	> 100	> 100	> 100	–	> 100	> 100	–	–	–	–	–	–	–	–	–	–
COC(=O)C1=C(OC(=O)/C(=C/c2ccc(Cl)cc2)c2ccc(Cl)cc2)C(C(=O)OC)[C@]2(O)[C@@H](C(=O)OC)[C@H]1C[C@@H](c1ccccc1)[C@@H]2C(=O)OC (some centres undefined)	–	> 100	> 100	> 100	> 100	> 100	> 100	> 100	> 100	–	–	–	–	–	–	–	–	–	–	–
CC(N)Cc1ccc(Cl)c(Cl)c1 (centres undefined)	> 90.6	56.5	71.2	> 100	> 100	77.2	> 80.1	> 60.2	> 100	57.4	–	–	–	–	–	–	–	–	–	–
Cc1c(-c2ccccc2)[nH]c2cc(Cl)ccc2c1=O	> 100	> 100	> 100	68	–	79.5	–	> 100	> 100	–	–	–	–	–	–	–	–	–	–	–
C/C(=N/N=C(\[O-])c1ccncc1)C(F)(F)F.C/C(=N\N=C(/[O-])c1ccncc1)C(F)(F)F.[Ni+2]	> 1	> 1	> 1	> 1	–	–	> 1	–	0.005	–	> 1	> 1	> 1	> 1	> 1	0.00156	–	–	–	–
COc1cc(C(C)O)c[n+](Cc2ccccc2)c1 (centres undefined)	> 100	> 100	> 100	> 100	> 31.6	> 100	> 100	> 100	> 100	> 100	–	–	–	–	–	–	–	–	–	–
Nc1[nH]c(=O)nc2c1cnn2C1CCCCO1 (centres undefined)	> 100	> 100	> 100	> 100	> 100	> 100	> 100	> 100	–	> 100	–	–	–	–	–	–	–	–	–	–
CC(C)C(C(=O)O)N1C(=O)c2ccccc2C1=O (centres undefined)	> 100	> 100	> 100	> 100	> 100	> 100	> 100	–	> 100	> 100	–	–	–	–	–	–	–	–	–	–
CCN1CCC(O)(/C=C/c2ccccc2C)C(C(=O)/C=C/c2ccccc2C)C1 (centres undefined)	4.55	6.7	6.12	–	7.85	3.67	6.68	4.28	21	3.38	–	–	–	–	–	–	–	–	–	–
CC12C=CC(=O)C=C1CCC1C3CCC(O)(C(=O)CO)C3(C)CC(O)C12F (centres undefined)	> 100	> 100	> 100	> 100	> 100	> 100	> 100	> 100	> 100	> 100	–	–	–	–	–	–	–	–	–	–
CN1C(c2ccccc2)CC(=O)C(N)C1c1ccccc1 (centres undefined)	> 100	55.8	> 58.8	> 100	> 81.2	> 31.6	> 100	> 96.5	> 100	78.9	–	–	–	–	–	–	–	–	–	–
c1ccc(-c2nc(N3CCNCC3)c3oc(-c4ccccc4)nc3n2)cc1	3.07	–	–	5.05	–	3.07	3.22	3.17	3.8	3.06	1.62	–	–	2.11	1.75	1.88	1.46	1.54	1.76	–
CCCC1CCC(=C2C(=O)CCC2=O)O1 (centres undefined)	–	> 100	> 100	> 100	> 100	> 100	> 100	> 100	> 100	> 100	–	–	–	–	–	–	–	–	–	–
C=C(C)C1Cc2c(c3ccccc3n(C)c2=O)O1 (centres undefined)	> 100	> 100	> 100	> 100	> 100	–	> 100	> 100	> 100	> 100	–	–	–	–	–	–	–	–	–	–
CCCCCCCCCCCCCCCC(=O)N1CCCC1C(=O)NCC(=O)NC(Cc1ccccc1)C(=O)NC(C)C(=O)NC(CO)C(=O)NC(Cc1ccc(O)cc1)C(=O)NC(CCCCN)C(=O)NC(CC(C)C)C(=O)NC(CCCN=C(N)N)C(=O)N1CCCC1C(=O)NCC(N)=O (centres undefined) (Palmitoyl-PGFASYKLRPG-NH2; configuration not given here)	> 100	30.5	31.4	35.6	51.9	53.5	67.1	61.4	28.7	34.7	37.4	16.8	17.6	15.9	27.3	12.8	15.8	24.7	24	24
Cn1c(-c2ccccc2)cc(-c2cccs2)c1-c1cccs1	> 100	> 100	> 100	> 100	> 100	> 100	> 100	> 100	> 100	> 100	–	–	–	–	–	–	–	–	–	–
